Results on one molecule are retold here after US9549932B2, “2-(morpholin-4-yl)-1,7-naphthyridines” (BAYER PHARMA AKTIENGESELLSCHAFT, priority 2014, dated 2017).

Like-named read-outs stand apart in the source and are kept apart here.

The test system of assay [1] is B16F10 cells. Put plainly: Proliferation assay B16F10 (crystal violet). The note with it: read-out: Inhibition of B16F10 cell proliferation, 4 days incubation.
Description: After 24 hours, the cells of one plate (zero plate) were dyed with crystal violet (see below), whereas the medium of the other plates was replaced with fresh culture medium (200 μl) to which the test substances were added in various concentrations (0 μM, and also in the range of 0.001-10 μM; the final concentration of the solvent dimethyl sulphoxide was 0.1 or 0.5%). The cells were incubated for 4 days in the presence of the test substances. […] After washing the fixed cells three times with water, the plates were dried at room temperature. The cells were stained by adding 100 μl/measurement point of a 0.1% strength crystal violet solution (pH adjusted to pH 3 by adding acetic acid). After washing the cells three times with water, the plates were dried at room temperature. The dye was dissolved by adding 100 μl/measurement point of a 10% strength acetic acid solution. […] The percentage change in cell growth was calculated by normalizing the measured values to the absorbance values of the zero plate (=0%) and the absorbance of the untreated (0 μM) cells (=100%). The IC50 values were determined by means of a four parameter fit.
Assay [2] has as its target full-length human ATR protein (Homo sapiens (Human), UniProt Q13535). Briefly: Binding assay ATR (TR-FRET tracer displacement). As to conditions: TR-FRET. The gist of the method:
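Full-length human GST-ATR co-purified with ATRIP, pre-complexed 30 min at 22 °C with anti-GST-Tb antibody, then pre-bound with compound 10 min. Tracer A or B added (2 µl of 100 nM solution), 30 min at 22 °C.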

full-length human ATR protein, sequence (Q13535 other isoform, or with tags, fused parts or gaps): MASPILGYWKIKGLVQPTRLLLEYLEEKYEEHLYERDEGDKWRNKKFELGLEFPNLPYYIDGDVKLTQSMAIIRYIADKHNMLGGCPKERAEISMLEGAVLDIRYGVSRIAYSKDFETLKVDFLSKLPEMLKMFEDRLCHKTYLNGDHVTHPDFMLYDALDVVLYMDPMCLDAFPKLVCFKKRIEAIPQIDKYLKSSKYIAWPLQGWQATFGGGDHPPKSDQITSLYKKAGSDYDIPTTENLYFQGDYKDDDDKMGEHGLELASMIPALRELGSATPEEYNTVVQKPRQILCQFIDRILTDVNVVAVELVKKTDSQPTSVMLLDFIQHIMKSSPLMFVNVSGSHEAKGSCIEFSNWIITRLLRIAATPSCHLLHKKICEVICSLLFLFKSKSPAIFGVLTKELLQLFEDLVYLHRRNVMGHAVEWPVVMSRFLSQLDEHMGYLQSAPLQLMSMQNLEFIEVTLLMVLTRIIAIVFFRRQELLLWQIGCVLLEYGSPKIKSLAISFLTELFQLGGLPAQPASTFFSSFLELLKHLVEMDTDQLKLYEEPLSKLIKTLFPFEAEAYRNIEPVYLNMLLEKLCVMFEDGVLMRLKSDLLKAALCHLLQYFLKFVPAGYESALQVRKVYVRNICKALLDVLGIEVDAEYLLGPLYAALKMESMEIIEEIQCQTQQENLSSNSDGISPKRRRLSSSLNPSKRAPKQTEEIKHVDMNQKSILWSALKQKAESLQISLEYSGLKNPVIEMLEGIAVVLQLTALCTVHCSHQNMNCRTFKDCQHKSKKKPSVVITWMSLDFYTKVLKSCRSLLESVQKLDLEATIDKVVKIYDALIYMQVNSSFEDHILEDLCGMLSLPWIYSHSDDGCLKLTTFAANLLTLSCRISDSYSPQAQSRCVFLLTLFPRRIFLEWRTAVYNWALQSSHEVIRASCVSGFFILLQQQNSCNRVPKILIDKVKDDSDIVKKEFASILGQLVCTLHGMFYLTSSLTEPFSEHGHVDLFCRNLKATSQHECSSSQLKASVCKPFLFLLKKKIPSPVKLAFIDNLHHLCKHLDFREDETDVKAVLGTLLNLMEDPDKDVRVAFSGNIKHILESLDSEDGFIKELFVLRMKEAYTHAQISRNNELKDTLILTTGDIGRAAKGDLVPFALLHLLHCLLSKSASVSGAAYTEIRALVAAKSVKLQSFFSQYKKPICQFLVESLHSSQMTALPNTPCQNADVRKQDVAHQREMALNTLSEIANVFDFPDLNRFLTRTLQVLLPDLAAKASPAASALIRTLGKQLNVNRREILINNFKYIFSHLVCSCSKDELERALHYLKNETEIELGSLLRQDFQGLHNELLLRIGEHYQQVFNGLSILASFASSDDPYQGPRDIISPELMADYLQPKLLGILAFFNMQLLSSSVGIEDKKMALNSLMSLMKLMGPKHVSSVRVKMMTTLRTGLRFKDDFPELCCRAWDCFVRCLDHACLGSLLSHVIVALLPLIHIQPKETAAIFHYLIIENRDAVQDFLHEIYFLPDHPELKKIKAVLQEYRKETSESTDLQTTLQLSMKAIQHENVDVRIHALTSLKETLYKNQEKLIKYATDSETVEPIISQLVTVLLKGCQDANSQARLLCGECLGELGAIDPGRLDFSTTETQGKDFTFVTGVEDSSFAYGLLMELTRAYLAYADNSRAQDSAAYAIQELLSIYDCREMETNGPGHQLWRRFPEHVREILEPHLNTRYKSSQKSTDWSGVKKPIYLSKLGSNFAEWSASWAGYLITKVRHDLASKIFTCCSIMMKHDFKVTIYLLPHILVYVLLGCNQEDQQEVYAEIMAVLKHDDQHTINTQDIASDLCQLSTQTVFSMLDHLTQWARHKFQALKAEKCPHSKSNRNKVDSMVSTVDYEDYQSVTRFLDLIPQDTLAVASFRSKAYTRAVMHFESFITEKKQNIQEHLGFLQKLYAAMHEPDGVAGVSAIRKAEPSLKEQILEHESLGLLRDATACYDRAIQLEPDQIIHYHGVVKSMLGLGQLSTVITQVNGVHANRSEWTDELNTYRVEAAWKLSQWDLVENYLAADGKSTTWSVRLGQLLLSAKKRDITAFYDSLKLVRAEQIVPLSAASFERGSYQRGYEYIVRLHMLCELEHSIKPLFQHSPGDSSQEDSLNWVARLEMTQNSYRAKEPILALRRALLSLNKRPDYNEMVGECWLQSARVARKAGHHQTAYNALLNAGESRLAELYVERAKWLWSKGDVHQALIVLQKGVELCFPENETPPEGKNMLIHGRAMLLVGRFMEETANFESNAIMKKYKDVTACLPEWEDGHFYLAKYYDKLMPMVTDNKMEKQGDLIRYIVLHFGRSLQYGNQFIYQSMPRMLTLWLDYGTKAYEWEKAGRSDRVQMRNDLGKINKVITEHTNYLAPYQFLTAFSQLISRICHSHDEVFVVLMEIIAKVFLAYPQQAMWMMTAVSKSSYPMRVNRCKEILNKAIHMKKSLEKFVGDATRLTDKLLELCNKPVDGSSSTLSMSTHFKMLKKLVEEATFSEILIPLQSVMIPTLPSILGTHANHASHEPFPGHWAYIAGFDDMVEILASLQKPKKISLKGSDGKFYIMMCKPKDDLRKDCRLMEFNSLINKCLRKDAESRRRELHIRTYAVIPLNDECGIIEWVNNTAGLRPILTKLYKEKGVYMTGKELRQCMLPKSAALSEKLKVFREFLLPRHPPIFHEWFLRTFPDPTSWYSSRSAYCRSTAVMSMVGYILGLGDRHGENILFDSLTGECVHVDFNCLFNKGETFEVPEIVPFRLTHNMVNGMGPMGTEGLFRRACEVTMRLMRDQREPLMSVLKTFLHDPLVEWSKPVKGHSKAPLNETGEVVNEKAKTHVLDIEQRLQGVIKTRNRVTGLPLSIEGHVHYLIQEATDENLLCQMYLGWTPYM
full-length human ATR protein, sequence (Q8WXE1 other isoform, or with tags, fused parts or gaps partner): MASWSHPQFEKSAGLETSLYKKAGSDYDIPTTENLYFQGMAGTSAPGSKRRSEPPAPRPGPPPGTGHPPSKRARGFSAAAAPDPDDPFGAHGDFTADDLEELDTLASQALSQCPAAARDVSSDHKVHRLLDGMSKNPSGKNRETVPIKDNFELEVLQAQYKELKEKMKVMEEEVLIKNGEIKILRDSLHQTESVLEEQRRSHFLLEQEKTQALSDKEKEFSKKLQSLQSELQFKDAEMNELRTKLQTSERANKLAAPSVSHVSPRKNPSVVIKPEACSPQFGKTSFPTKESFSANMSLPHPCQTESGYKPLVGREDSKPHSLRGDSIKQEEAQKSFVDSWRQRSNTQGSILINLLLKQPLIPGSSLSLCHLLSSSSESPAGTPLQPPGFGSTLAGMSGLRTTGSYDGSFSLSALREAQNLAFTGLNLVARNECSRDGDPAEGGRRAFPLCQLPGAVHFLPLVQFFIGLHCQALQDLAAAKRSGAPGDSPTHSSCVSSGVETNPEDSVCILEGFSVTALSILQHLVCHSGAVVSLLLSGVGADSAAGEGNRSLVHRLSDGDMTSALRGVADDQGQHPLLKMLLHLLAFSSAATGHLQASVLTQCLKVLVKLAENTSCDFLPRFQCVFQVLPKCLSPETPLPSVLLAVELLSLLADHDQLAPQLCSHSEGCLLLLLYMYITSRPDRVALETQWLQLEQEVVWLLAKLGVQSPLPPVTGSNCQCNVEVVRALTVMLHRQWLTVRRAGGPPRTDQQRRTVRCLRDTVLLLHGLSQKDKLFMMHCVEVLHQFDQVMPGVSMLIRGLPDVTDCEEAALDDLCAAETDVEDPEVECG

On to `CC(C)Oc1cc(N2CCOCC2)nc2c(-c3cc[nH]n3)nccc12` [Example 40, 4-isopropoxy-2-(morpholin-4-yl)-8-(1H-pyrazol-3-yl)-[1,7]naphthyridine], for which the IC50 in assay [1] is above 3000 nM; in assay [2] (tracer A, read-out: ATR binding (tracer A) IC50), 125 nM; in assay [2] (tracer B, read-out: ATR binding (tracer B) IC50) it was 99 nM.
